Results reported in ChEMBL document CHEMBL1201862, “PubChem BioAssay data set” (2004).
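Results reflect a 48-hour exposure of cells in 96-well plates to compound at five concentrations. Here, GI50 denotes the concentration required for 50% inhibition of growth.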 The source made the active and inactive calls. Cut-off read from the data, not from the text of the source: active = GI50 up to about 1.1 µM and inactive = higher.

Tests used:
Test in all cases: inhibition of tumour cell growth, NCI panel, 48 h
[1] = system: ACHN
[2] = system: HCT-116
[3] = system: HL-60
[4] = system: HT-29
[5] = system: IGROV-1
[6] = system: KM12
[7] = system: LOX IMVI
[8] = system: MOLT-4
[9] = system: NCI-H226
[10] = system: NCI-H23
[11] = system: OVCAR-5
[12] = system: OVCAR-8
[13] = system: RPMI-8226
[14] = system: SK-MEL-2
[15] = system: SNB-75
[16] = system: UACC-62
[17] = system: UO-31
[18] = system: MDA-MB-231
[19] = system: PC-3
[20] = system: MDA-N

| SMILES | GI50 [1] | GI50 [2] | GI50 [3] | GI50 [4] | GI50 [5] | GI50 [6] | GI50 [7] | GI50 [8] | GI50 [9] | GI50 [10] | GI50 [11] | GI50 [12] | GI50 [13] | GI50 [14] | GI50 [15] | GI50 [16] | GI50 [17] | GI50 [18] | GI50 [19] | GI50 [20] |
| --- | --- | --- | --- | --- | --- | --- | --- | --- | --- | --- | --- | --- | --- | --- | --- | --- | --- | --- | --- | --- |
| COc1ccccc1NC(=O)C1=C(C)NC(C)=C(C(=O)Nc2ccccc2OC)C1c1ccccc1Cl | 55.7 µM (inactive) | 52.8 µM (inactive) | 53.6 µM (inactive) | 64.1 µM (inactive) | > 100 µM (inactive) | 61 µM (inactive) | > 100 µM (inactive) | 27.2 µM (inactive) | > 100 µM (inactive) | > 100 µM (inactive) | > 100 µM (inactive) | > 100 µM (inactive) | 30.7 µM (inactive) | 88.7 µM (inactive) | 46.9 µM (inactive) | > 100 µM (inactive) | 28.5 µM (inactive) | – | – | – |
| CC(=O)OC12COC1CC(O)C1(C)C(=O)C(O)C3=C(C)C(O)CC(O)(C(OC(=O)c4ccccc4)C21)C3(C)C (stereo unspecified) | 90.2 µM (inactive) | 1.67 µM (inactive) | 2.52 µM (inactive) | 1.31 µM (inactive) | 7.23 µM (inactive) | 0.839 µM (active) | 1.82 µM (inactive) | 6.7 µM (inactive) | 6.01 µM (inactive) | 3.36 µM (inactive) | 3.94 µM (inactive) | 6.98 µM (inactive) | 1.25 µM (inactive) | 1.55 µM (inactive) | 1.75 µM (inactive) | > 100 µM (inactive) | 67.1 µM (inactive) | 7.91 µM (inactive) | 3.03 µM (inactive) | – |
| COc1ccc(N2C(=O)/C(=C(\C)c3cc4ccccc4oc3=O)N=C2c2cc([N+](=O)[O-])ccc2Cl)cc1 | 32.1 µM (inactive) | 29.9 µM (inactive) | 22.9 µM (inactive) | 35.7 µM (inactive) | 43.3 µM (inactive) | 22.3 µM (inactive) | 34.5 µM (inactive) | 29.7 µM (inactive) | > 100 µM (inactive) | 11.2 µM (inactive) | > 100 µM (inactive) | > 100 µM (inactive) | 26.5 µM (inactive) | 61 µM (inactive) | 33.3 µM (inactive) | 26.6 µM (inactive) | 46.9 µM (inactive) | – | – | – |
| CCOC(=O)C1=C(O)C(=O)c2ccccc2C1=O | > 100 µM (inactive) | > 100 µM (inactive) | > 100 µM (inactive) | > 100 µM (inactive) | > 100 µM (inactive) | > 100 µM (inactive) | 85.1 µM (inactive) | > 100 µM (inactive) | 48.3 µM (inactive) | 44.3 µM (inactive) | > 100 µM (inactive) | > 100 µM (inactive) | > 100 µM (inactive) | > 100 µM (inactive) | > 100 µM (inactive) | 48 µM (inactive) | > 100 µM (inactive) | – | – | – |
| Clc1cccc(N2CCN(CCCN3CCc4c([nH]c5ccccc45)C3c3cccnc3)CC2)c1 (stereo unspecified) | 12.4 µM (inactive) | 5.78 µM (inactive) | 2.46 µM (inactive) | 3.89 µM (inactive) | 29.6 µM (inactive) | > 10 µM (inactive) | 8.17 µM (inactive) | 3.88 µM (inactive) | 18.1 µM (inactive) | 10.7 µM (inactive) | 7.66 µM (inactive) | 10.8 µM (inactive) | 6.15 µM (inactive) | 11 µM (inactive) | 11 µM (inactive) | > 10 µM (inactive) | 5.15 µM (inactive) | – | – | – |
| O=C(O)c1ccc2c(c1)Cc1cc([N+](=O)[O-])ccc1-2 | > 100 µM (inactive) | > 100 µM (inactive) | > 100 µM (inactive) | > 100 µM (inactive) | > 100 µM (inactive) | > 100 µM (inactive) | > 100 µM (inactive) | > 100 µM (inactive) | 52.1 µM (inactive) | > 100 µM (inactive) | > 100 µM (inactive) | 59.7 µM (inactive) | 0.546 µM (active) | > 100 µM (inactive) | > 100 µM (inactive) | > 100 µM (inactive) | 93.1 µM (inactive) | > 100 µM (inactive) | – | – |
| COc1ccc(/N=N/C(C(=O)c2ccccc2)C(=O)c2ccccc2)cc1 | 24.7 µM (inactive) | 13.6 µM (inactive) | 10.4 µM (inactive) | 23 µM (inactive) | 34.7 µM (inactive) | 27 µM (inactive) | 17.8 µM (inactive) | 14.7 µM (inactive) | 8.67 µM (inactive) | 18.3 µM (inactive) | 33.8 µM (inactive) | 22.4 µM (inactive) | 13.4 µM (inactive) | 21.9 µM (inactive) | 20.6 µM (inactive) | 16 µM (inactive) | 16.9 µM (inactive) | – | – | – |
| CCc1n[nH]c(=O)n1NC(=O)c1ccccc1C(=O)O | > 100 µM (inactive) | > 100 µM (inactive) | – | > 100 µM (inactive) | > 100 µM (inactive) | > 100 µM (inactive) | > 100 µM (inactive) | > 100 µM (inactive) | – | > 100 µM (inactive) | > 100 µM (inactive) | > 100 µM (inactive) | > 100 µM (inactive) | > 100 µM (inactive) | > 100 µM (inactive) | > 100 µM (inactive) | > 100 µM (inactive) | > 100 µM (inactive) | > 100 µM (inactive) | > 100 µM (inactive) |
| O=C1C=CC(=O)C12CCc1ccccc12 | > 100 µM (inactive) | > 100 µM (inactive) | 24.2 µM (inactive) | > 95.3 µM (inactive) | > 100 µM (inactive) | > 100 µM (inactive) | > 60.8 µM (inactive) | > 44.3 µM (inactive) | > 100 µM (inactive) | > 100 µM (inactive) | > 100 µM (inactive) | > 100 µM (inactive) | 12.1 µM (inactive) | > 100 µM (inactive) | 51.2 µM (inactive) | > 100 µM (inactive) | > 100 µM (inactive) | – | – | – |
| CC(=O)OCCOCNC(=S)N/N=C/c1ccc([N+](=O)[O-])s1 | 46.5 µM (inactive) | 20.1 µM (inactive) | 3.81 µM (inactive) | 20.7 µM (inactive) | 34 µM (inactive) | 34.4 µM (inactive) | 33.4 µM (inactive) | 28.8 µM (inactive) | > 100 µM (inactive) | 19 µM (inactive) | 37.3 µM (inactive) | 45.5 µM (inactive) | 29.1 µM (inactive) | 67.3 µM (inactive) | > 100 µM (inactive) | 24.3 µM (inactive) | > 100 µM (inactive) | – | – | – |
| CC(C)CC1NC(=O)C(C(C)C)NC(=O)CC(C)COC(=O)C(CC(C)C)N(C)C(=O)C(C(C)C)NC(=O)C(C(C)C)OC1=O (stereo unspecified) | > 50 µM (inactive) | > 50 µM (inactive) | – | > 50 µM (inactive) | > 50 µM (inactive) | > 50 µM (inactive) | 23.5 µM (inactive) | > 50 µM (inactive) | 13 µM (inactive) | > 50 µM (inactive) | 37.7 µM (inactive) | 34.7 µM (inactive) | – | 18.2 µM (inactive) | 10.9 µM (inactive) | 16 µM (inactive) | > 50 µM (inactive) | 19.7 µM (inactive) | > 50 µM (inactive) | > 50 µM (inactive) |
| Cc1cccc(C)c1N1C(=O)C(=O)C(c2nc3ccccc3s2)/C(=N/NC(=O)c2ccccc2O)C1=O (stereo unspecified) | 6.65 µM (inactive) | 10.3 µM (inactive) | 12.5 µM (inactive) | 51.5 µM (inactive) | 3.26 µM (inactive) | 35.2 µM (inactive) | 24.4 µM (inactive) | 8.89 µM (inactive) | 13.7 µM (inactive) | 7.38 µM (inactive) | 36.9 µM (inactive) | 21 µM (inactive) | 12.7 µM (inactive) | 11 µM (inactive) | 1.05 µM (active) | 2.08 µM (inactive) | 4.78 µM (inactive) | – | – | – |
| COc1cc(S(=O)(=O)Nc2ccc(-c3csc(N4C(=O)C(C)SC4c4ccccc4O)n3)cc2)ccc1Cl (stereo unspecified) | 65.8 µM (inactive) | 30.1 µM (inactive) | 27.3 µM (inactive) | 56.9 µM (inactive) | 35.8 µM (inactive) | 29.7 µM (inactive) | 29.9 µM (inactive) | 27.1 µM (inactive) | 28.6 µM (inactive) | 30.1 µM (inactive) | 95.1 µM (inactive) | 40.9 µM (inactive) | 32.1 µM (inactive) | 42 µM (inactive) | 28.8 µM (inactive) | 31 µM (inactive) | 38.6 µM (inactive) | – | 29.9 µM (inactive) | 28.6 µM (inactive) |
| CC1(N2CCOCC2)CC2C(=[N+]1[O-])CCC/C2=N/O (stereo unspecified) | > 100 µM (inactive) | > 100 µM (inactive) | – | > 100 µM (inactive) | > 100 µM (inactive) | > 100 µM (inactive) | > 100 µM (inactive) | > 100 µM (inactive) | > 100 µM (inactive) | > 100 µM (inactive) | > 100 µM (inactive) | > 100 µM (inactive) | – | > 100 µM (inactive) | 0.334 µM (active) | > 100 µM (inactive) | > 100 µM (inactive) | > 100 µM (inactive) | > 100 µM (inactive) | > 100 µM (inactive) |
| Nc1nc(N)c2cc(S(=O)(=O)c3ccc4ccccc4c3)ccc2n1 | 2.74 µM (inactive) | 0.495 µM (active) | > 100 µM (inactive) | – | 1.5 µM (inactive) | 9.95 µM (inactive) | 0.766 µM (active) | – | – | 4.27 µM (inactive) | > 100 µM (inactive) | 1.34 µM (inactive) | > 100 µM (inactive) | 43.4 µM (inactive) | 2.86 µM (inactive) | 2.57 µM (inactive) | 2.04 µM (inactive) | 1.62 µM (inactive) | 1.58 µM (inactive) | – |
| O=C1Cc2c([nH]c3ccc(Br)cc23)-c2cc(Br)ccc2N1 | > 100 µM (inactive) | – | – | – | – | > 100 µM (inactive) | > 100 µM (inactive) | 86.3 µM (inactive) | > 100 µM (inactive) | > 100 µM (inactive) | > 100 µM (inactive) | > 100 µM (inactive) | > 100 µM (inactive) | > 100 µM (inactive) | – | > 100 µM (inactive) | > 100 µM (inactive) | > 100 µM (inactive) | > 100 µM (inactive) | – |
